From ChEMBL document CHEMBL4622860, “The relationship between the structure and toxicity of aminoglycoside antibiotics” (Bioorg Med Chem Lett, 2020)

Columns and labels:
[1] = Ototoxicity against C57BL/6 mouse cochlea hair cells assessed as reduction in cell viability at 0.1 mM incubated for 23 hrs by FITC-phalloidin staining-based assay; type: toxicity; conditions: read-out: INH
[2] = Nephrotoxicity in human patients assessed as proportion of patients with higher serum creatinine level; type: toxicity; conditions: in vivo

Row | SMILES | cytotoxicity at 23 h, 100 µM [1] [%] | Activity [2] [%]
1 | NC[C@@H]1O[C@H](O[C@H]2[C@@H](O)[C@H](O[C@@H]3[C@@H](O)[C@H](N)C[C@H](N)[C@H]3O[C@H]3O[C@H](CN)[C@@H](O)[C@H](O)[C@H]3N)O[C@@H]2CO)[C@H](N)[C@@H](O)[C@@H]1O [FRAMYCETIN] | 20 | –
2 | NC[C@@H]1O[C@H](O[C@H]2[C@@H](O)[C@H](O[C@@H]3[C@@H](O)[C@H](N)C[C@H](N)[C@H]3O[C@H]3O[C@H](CO)[C@@H](O)[C@H](O)[C@H]3N)O[C@@H]2CO)[C@H](N)[C@@H](O)[C@@H]1O [PAROMOMYCIN] | 4 | –
3 | CN[C@@H]1[C@@H](O)[C@@H](O[C@@H]2[C@@H](O)[C@H](O[C@H]3OC(CNCCO)=CC[C@H]3N)[C@@H](N)C[C@H]2NC(=O)[C@@H](O)CCN)OC[C@]1(C)O [PLAZOMICIN] | – | 7
